Patent US7503967B2, “Azo compound, ink composition and colored article” (Nippon Kayaku Kabushiki Kaisha, priority 2004, dated 2009)

assay: solubility in water of the azo compound; assay type: physicochemical; details: mixed salt of lithium and sodium

solubility [mg/mL] | Structure (SMILES)
≥ 100 | Nc1c(N=Nc2ccc3c(O)c(N=Nc4ccc(N=Nc5ccc(S(=O)(=O)O)cc5)cc4S(=O)(=O)O)c(S(=O)(=O)O)cc3c2S(=O)(=O)O)cc(S(=O)(=O)O)c2cc(S(=O)(=O)O)c(N=Nc3ccc([N+](=O)[O-])cc3S(=O)(=O)O)c(O)c12 [compound 1]
≥ 100 | Nc1c(N=Nc2ccc3c(O)c(N=Nc4ccc(N=Nc5ccc(S(=O)(=O)O)cc5)cc4S(=O)(=O)O)c(S(=O)(=O)O)cc3c2S(=O)(=O)O)cc(S(=O)(=O)O)c2cc(S(=O)(=O)O)c(N=Nc3ccc(S(=O)(=O)O)cc3[N+](=O)[O-])c(O)c12 [compound 3]
≥ 100 | Cc1cc(N=Nc2c(S(=O)(=O)O)cc3c(S(=O)(=O)O)c(N=Nc4cc(S(=O)(=O)O)c5cc(S(=O)(=O)O)c(N=Nc6ccc([N+](=O)[O-])cc6S(=O)(=O)O)c(O)c5c4N)ccc3c2O)c(OCCCS(=O)(=O)O)cc1N=Nc1ccc(S(=O)(=O)O)cc1C(=O)O [compound 21]

Structure (SMILES) | solubility [mg/mL]
Cc1cc(N=Nc2c(S(=O)(=O)O)cc3c(S(=O)(=O)O)c(N=Nc4cc(S(=O)(=O)O)c5cc(S(=O)(=O)O)c(N=Nc6ccc([N+](=O)[O-])cc6S(=O)(=O)O)c(O)c5c4N)ccc3c2O)c(OCCCS(=O)(=O)O)cc1N=Nc1ccc([N+](=O)[O-])cc1S(=O)(=O)O [compound 16] | ≥ 100
